{"source": "patent US20250381307A1", "about": "“RETRO-AAV AND USE IN TREATING NEURODEGENERATIVE DISEASES” (priority 2023, published 2025)", "key": {"rM3Ds": {"biological_target": "T1, rM3Ds (Rattus norvegicus, UniProt P08483, A177S/A238G/A489L/DEL261-437/DEL441-478/E258S/I253V/I483M/INS256[…]/K178L/K182A/K255R/K484R/K486H/L173F/L482A/M480V/R171S/R176Q/R179M/S481M/T174R/T181R/T257A/Y148C)", "T1 sequence (P08483 with tags, fused parts or gaps Y148C/R171S/L173F/T174R/R176Q/A177S/K178L/R179M/T181R/K182A/A238G/I253V/K255R/INS256[…]/T257A/E258S/DEL261-437/DEL441-478/M480V/S481M/L482A/I483M/K484R/K486H/A489L)": "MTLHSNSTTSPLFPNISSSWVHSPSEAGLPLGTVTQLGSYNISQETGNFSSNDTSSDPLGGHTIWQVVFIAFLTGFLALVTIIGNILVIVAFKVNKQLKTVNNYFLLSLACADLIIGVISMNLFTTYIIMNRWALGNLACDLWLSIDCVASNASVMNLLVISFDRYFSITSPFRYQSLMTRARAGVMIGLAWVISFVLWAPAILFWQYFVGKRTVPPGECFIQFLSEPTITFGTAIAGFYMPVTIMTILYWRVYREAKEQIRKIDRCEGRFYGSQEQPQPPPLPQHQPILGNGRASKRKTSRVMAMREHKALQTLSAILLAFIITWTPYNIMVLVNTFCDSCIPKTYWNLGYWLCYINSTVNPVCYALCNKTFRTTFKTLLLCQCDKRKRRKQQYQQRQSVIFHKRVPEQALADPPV", "experiment": "In vivo electrophysiological recording in caudate/putamen, rM3Ds macaques, intramuscular CNO", "set-up": "rM3Ds; 2A-EYFP (C); host or cells: AAV8R12-transduced striatal D1-MSNs of mice and cynomolgus macaques (in vivo and acute slices)", "procedure": "Electrophysiological recording was performed through a recording chamber while the monkey was anesthetized. Neural responses were recorded by a 16-channel linear probe (Plexon Inc, Uprobe) driven by a mechanical microdrive (Alpha Omega, FlexMT). Signals were passed through a head stage (Plexon Inc, HST/16V-G20 LN) and then split and filtered between 300 Hz and 5 kHz to identify spiking activity with an amplifier system (Plexon Inc, OmniPlex). Detected spikes were then sorted by commercially available software (Plexon Inc, Offline Sorter) for further analysis. To quantify the effect of CNO/DCZ injection, neural activity was recorded for 60 minutes following CNO/DCZ injection. The response time-course for each channel was obtained by counting the spikes within every 10-minute window and then normalizing to the maximal.\nTo determine the effect of CNO/DCZ injection on the direction of signal change, we performed Pearson correlation between neural responses and time using the ‘corr’ function in Matlab, which generates the correlation coefficient ‘r’ and significant level ‘p’. A neuron was considered to have “Increased” activity when r>0 and p<0.05; and considered to have “Decreased” activity when r<0 and p<0.05. Otherwise, neurons were considered to be “Unchanged” in their neural activities. The responses of all increased neurons were then averaged after being normalized by the maximal response (Crowe et al., 2014; Dai and Wang, 2018; Hirokawa et al., 2019) following CNO/DCZ injection, and then plotted as a function of time to generate the normalized population response.\nTo enable in-vivo verification of the strategy via an opto-tagging approach, AAV virus encoding opsin ChR2 (AAV9-EF1α-DIO-ChR2-EYFP) was injected into the striatum with simultaneous nigral infusion of a retrograde AAV encoding Cre and rM3Ds (AAV8R12-G88P7-HA-rM3Ds-2A-Cre). A total volume of 27 μl (3 μl×9 sites) and 30 μl (3 μl×10 sites) were injected in the SNr and the striatum, respectively. A recording chamber was implanted above the striatum to allow optical stimulation and electrophysiological recording.\nOptogenetic verification was conducted six weeks after virus injections. A 16-channel linear probe with an embedded optic fiber (Plexon Inc., Uprobe) was used to deliver light stimulation and record neural responses. A mechanical Microdrive (FlexMT, Alpha Omega, Nazareth, Israel) was used to mount and drive the probe. A blue laser (473 nm, Changchun New Industries Tech, MBL-III-473) was used to generate light stimulation, which was controlled by a DAQ board (National Instruments, PCIe-6321) through the MonkeyLogic toolbox (NIMH version).\nLight pulses of 40 Hz that last for 500 ms were used to probe neurons' responses to optical stimulation. […] Responses from these optically identified cells were grouped to generate the normalized population response as a function of time."}, "hM3Dq or rM3Ds": {"test_system": "hM3Dq or rM3Ds", "experiment": "Locomotion test in macaques with nigral hM3Dq or rM3Ds AAV after CNO", "assay_type": "in vivo", "procedure": "To guide the virus injection in SNr, a guide grid of multiple holes spaced by 1 mm was installed on each subject vertically above the SN. By filling vitamin E in these holes, the accurate coordinates for injection could be obtained from the T1-weighted MRI images (3T Tim Trio scanner, Siemens). Virus injections were performed in nine sites covering the whole SNr, and a total volume of 27 μL virus was unilaterally injected in the right SNr at the speed of 300 nL/min.\nThe locomotion tests for monkeys were conducted in a custom-made observation cage (100 cm×100 cm×100 cm). The top and front of the cage were made of toughened glass in order to gain a clear view for behavioral recording. Monkeys were habituated to the observation cage by placing them inside for 30 minutes on three separate days.\nFor monkeys injected with AAV8R12-G88P3-HA-hM3Dq, CNO was intracranially infused into the dorsomedial caudate through the recording chamber. To infuse while the animal was awake, the monkey was trained to sit in a primate chair specially designed with its head fixed to the primate chair by a mask made of thermoplastic materials. Injections were conducted through a 33-Gauge needle connected to a 250 μL syringe via a polyethylene pipe (Hamilton, Neuros). […] The needle was held for 5 minutes for drug diffusion before retraction. For monkeys injected with AAV8R12-G88P7-rM3Ds-2A-EYFP, CNO was infused via intramuscular injection (10 mg/kg). […] Videos capturing the subjects' behavior were recorded for at least 90 minutes. Animal behaviors from 30-90 minutes after saline/CNO infusion were further analyzed and quantified.\nFor rotation analysis, only movements that occurred lower than 30 cm on the z-axis were counted. To determine the direction of the rotation, we first computed the center for the rotation data in the x-y plane as (x0, y0) by averaging all data points, and then we computed the angle relative to (x0, y0) for each time point by the following formula:\nwhere θi represents the rotating angle at time i, and (xi, yi) represents the x-y coordinate at time i. We then calculated the change of rotating angle as Δθi=θi−θi-1. For right nigral injections, when Δθ<0, the direction of the rotation was anticlockwise and was labeled as a contraversive rotation. When Δθ>0, the direction of the rotation was clockwise and was labeled as an ipsiversive rotation. The raw data were analyzed and plotted through a custom R package. Code is available on Github (github.com/chenyef/PD_ana/blob/main/Behavior_ana.txt)."}}, "data": [{"smiles": "C[N+]1([O-])CCN(C2=Nc3cc(Cl)ccc3Nc3ccccc32)CC1", "note": "[CNO, clozapine N-oxide]", "values": [{"measurement": "caudate/putamen cells activated (FIG. 12N)", "setting": "rM3Ds; 38 total cells, saline 20%", "value": 50, "unit": "%"}, {"measurement": "caudate/putamen cells unchanged (FIG. 12N)", "setting": "rM3Ds; 38 total cells, saline 26.7%", "value": 36.8, "unit": "%"}, {"measurement": "caudate/putamen cells inactivated (FIG. 12N)", "setting": "rM3Ds; 38 total cells, saline 53.3%", "value": 13.2, "unit": "%"}, {"measurement": "neuronal activity of opto-tagged retrogradely labeled D1-MSNs", "setting": "rM3Ds; AAV8R12-G88P7-HA-rM3Ds-2A-Cre plus AAV9-EF1α-DIO-ChR2-EYFP, anesthetized macaques", "value": "effectively induced an increase of neuronal activity"}, {"measurement": "caudate cells activated (FIG. 12F)", "setting": "rM3Ds; monkey CM048, 38 cells", "value": 65.8, "unit": "%"}, {"measurement": "caudate cells inactivated (FIG. 12F)", "setting": "rM3Ds; monkey CM048, 38 cells", "value": 7.9, "unit": "%"}, {"measurement": "caudate cells unchanged (FIG. 12F)", "setting": "rM3Ds; monkey CM048, 38 cells", "value": 26.3, "unit": "%"}, {"measurement": "muscle tone by electromyogram recordings", "setting": "hM3Dq or rM3Ds; following CNO infusions", "value": "an increase in the muscle tone of the contralateral biceps brachii"}, {"measurement": "contraversive rotations (FIG. 10C)", "setting": "hM3Dq or rM3Ds; intracranial (hM3Dq) or systemic (rM3Ds) CNO, n=4 monkeys, mean±SEM, saline 1.004±0.2667", "value": "6.649±1.662"}, {"measurement": "velocity of ipsiversive rotations (FIG. 10H)", "setting": "hM3Dq or rM3Ds; n=4 monkeys, saline 37.43±3.264, not significant", "value": "41.37±6.566"}, {"measurement": "speed during contraversive rotations (FIG. 10G)", "setting": "hM3Dq or rM3Ds; n=4 monkeys, saline 38.42±5.465", "value": "46.98±6.669"}, {"measurement": "time in the top portion of the observing cage (FIG. 10D)", "setting": "hM3Dq or rM3Ds; n=4 monkeys, saline 68.42±10.7", "value": "33.74±2.641"}, {"measurement": "total distance (FIG. 10F)", "setting": "hM3Dq or rM3Ds; n=4 monkeys, saline 71.53±15.4, not significant", "value": "97.37±19.41"}, {"measurement": "immobile time (FIG. 10E)", "setting": "hM3Dq or rM3Ds; n=4 monkeys, saline 107.1±2.322, not significant", "value": "89.13±8.379"}, {"measurement": "rotations 2.5 years after the nigral injections", "setting": "hM3Dq or rM3Ds; systemic CNO, unilateral AAV8R12-G88P7-rM3Ds-2A-EYFP", "value": "increased contraversive rotations"}]}]}
